Measurements from PubChem BioAssay AID1963959 (Molecular Pharmacology Branch, DTP, NCI, 2024).

Tested on: T-47D spheroids with HUVEC/MSC, viability
Test: Anticancer human tumor T-47D cell line growth inhibition [PI3K];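 also: spheroids exposed to agents for seven days before reading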;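 as to viability, T/C: percent of DMSO vehicle control luminescence so 100% = untreated growth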
Conditions: for IC50: curve of first compound; for viability, T/C: stronger effect = lower value
How it was run: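 Viability of mixed-cell spheroids was determined after exposure to pairwise combinations, one partner being inavolisib, alpelisib, duvelisib or copanlisib. Highest tested concentration matched clinical Cmax where known and 10 microM where not, descending in half-log steps.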

[1] = second compound 0.0316 µM, first compound 0.0316 µM
[2] = second compound 0.0316 µM, first compound 0.1 µM
[3] = second compound 0.0316 µM, first compound 0.316 µM
[4] = second compound 0.0316 µM, first compound 1 µM
[5] = second compound 0.0316 µM, first compound 3.16 µM
[6] = second compound 0.0316 µM, first compound 10 µM
[7] = second compound 0.1 µM, first compound 0.0316 µM
[8] = second compound 0.1 µM, first compound 0.1 µM
[9] = second compound 0.1 µM, first compound 0.316 µM
[10] = second compound 0.1 µM, first compound 1 µM
[11] = second compound 0.1 µM, first compound 3.16 µM
[12] = second compound 0.1 µM, first compound 10 µM
[13] = second compound 0.316 µM, first compound 0.0316 µM
[14] = second compound 0.316 µM, first compound 0.1 µM
[15] = second compound 0.316 µM, first compound 0.316 µM
[16] = second compound 0.316 µM, first compound 1 µM
[17] = second compound 0.316 µM, first compound 3.16 µM
[18] = second compound 0.316 µM, first compound 10 µM
[19] = second compound 1 µM, first compound 0.0316 µM
[20] = second compound 1 µM, first compound 0.1 µM
[21] = second compound 1 µM, first compound 0.316 µM
[22] = second compound 1 µM, first compound 1 µM
[23] = second compound 1 µM, first compound 3.16 µM
[24] = second compound 1 µM, first compound 10 µM
[25] = second compound 3.16 µM, first compound 0.0316 µM
[26] = second compound 3.16 µM, first compound 0.1 µM
[27] = second compound 3.16 µM, first compound 0.316 µM
[28] = second compound 3.16 µM, first compound 1 µM
[29] = second compound 3.16 µM, first compound 3.16 µM
[30] = second compound 3.16 µM, first compound 10 µM
[31] = second compound 10 µM, first compound 0.0316 µM
[32] = second compound 10 µM, first compound 0.1 µM
[33] = second compound 10 µM, first compound 0.316 µM
[34] = second compound 10 µM, first compound 1 µM
[35] = second compound 10 µM, first compound 3.16 µM
[36] = second compound 10 µM, first compound 10 µM

**Q.** What does the source list for `Cn1nccc1Nc1nccc(-c2ccn(C(CO)c3ccc(Cl)c(F)c3)c(=O)c2)n1` (stereo unspecified) + COc1c(OCCCN2CCOCC2)ccc2c3n(c(=NC(=O)c4cnc(N)nc4)nc12)CCN3?
**A.** IC50 (second compound 0.00316 µM): > 10 µM; IC50 (second compound 0.01 µM): > 10 µM; IC50 (second compound 0.0316 µM): > 10 µM; IC50 (second compound 0.1 µM): < 0.0316 µM; IC50 (second compound 0.316 µM): < 0.0316 µM; IC50 (second compound 1 µM): < 0.0316 µM; viability, T/C (second compound 0.00316 µM, first compound 0.0316 µM): 107%; viability, T/C (second compound 0.00316 µM, first compound 0.1 µM): 94%; viability, T/C (second compound 0.00316 µM, first compound 0.316 µM): 94.2%; viability, T/C (second compound 0.00316 µM, first compound 1 µM): 102%; viability, T/C (second compound 0.00316 µM, first compound 3.16 µM): 99.9%; viability, T/C (second compound 0.00316 µM, first compound 10 µM): 104%; viability, T/C (second compound 0.01 µM, first compound 0.0316 µM): 104%; viability, T/C (second compound 0.01 µM, first compound 0.1 µM): 88%; viability, T/C (second compound 0.01 µM, first compound 0.316 µM): 107%; viability, T/C (second compound 0.01 µM, first compound 1 µM): 83.6%; viability, T/C (second compound 0.01 µM, first compound 3.16 µM): 103%; viability, T/C (second compound 0.01 µM, first compound 10 µM): 86.4%; viability, T/C [1]: 70%; viability, T/C [2]: 72.3%; viability, T/C [3]: 70.1%; viability, T/C [4]: 77%; viability, T/C [5]: 67.5%; viability, T/C [6]: 69.6%; viability, T/C [7]: 40.9%; viability, T/C [8]: 39.7%; viability, T/C [9]: 38.3%; viability, T/C [10]: 48.5%; viability, T/C [11]: 46.6%; viability, T/C [12]: 48.2%; viability, T/C [13]: 20.7%; viability, T/C [14]: 20.4%; viability, T/C [15]: 17.8%; viability, T/C [16]: 24.5%; viability, T/C [17]: 20.7%; viability, T/C [18]: 22.7%; viability, T/C [19]: 8.45%; viability, T/C [20]: 6.31%; viability, T/C [21]: 9.37%; viability, T/C [22]: 7.73%; viability, T/C [23]: 9.27%; viability, T/C [24]: 7.43%

**Q.** `Cn1nccc1Nc1nccc(-c2ccn(C(CO)c3ccc(Cl)c(F)c3)c(=O)c2)n1` (stereo unspecified) + Cc1nc(NC(=O)N2CCCC2C(N)=O)sc1-c1ccnc(C(C)(C)C(F)(F)F)c1 was tested. Which IC50 (second compound 0.0316 µM) did it give?
**A.** > 10 µM

**Q.** And the IC50 (second compound 0.1 µM)?
**A.** > 10 µM

**Q.** And the IC50 (second compound 0.316 µM)?
**A.** > 10 µM

**Q.** And the IC50 (second compound 1 µM)?
**A.** > 10 µM

**Q.** And the IC50 (second compound 3.16 µM)?
**A.** > 10 µM

**Q.** And the IC50 (second compound 10 µM)?
**A.** < 0.0316 µM

**Q.** And the viability, T/C [1]?
**A.** 99.1%

**Q.** What about the viability, T/C [2] of the same compound?
**A.** 81.6%

**Q.** What about the viability, T/C [3] of the same compound?
**A.** 92.6%

**Q.** And the viability, T/C [4]?
**A.** 102%

**Q.** What about the viability, T/C [5] of the same compound?
**A.** 103%

**Q.** What about the viability, T/C [6] of the same compound?
**A.** 96.3%

**Q.** What about the viability, T/C [7] of the same compound?
**A.** 111%

**Q.** And the viability, T/C [8]?
**A.** 95.2%

**Q.** And the viability, T/C [9]?
**A.** 98.8%

**Q.** What about the viability, T/C [10] of the same compound?
**A.** 89.4%

**Q.** And the viability, T/C [11]?
**A.** 117%

**Q.** What about the viability, T/C [12] of the same compound?
**A.** 85.7%

**Q.** What about the viability, T/C [13] of the same compound?
**A.** 86.8%

**Q.** What about the viability, T/C [14] of the same compound?
**A.** 93.3%

**Q.** And the viability, T/C [15]?
**A.** 97.6%

**Q.** And the viability, T/C [16]?
**A.** 101%

**Q.** And the viability, T/C [17]?
**A.** 104%

**Q.** What about the viability, T/C [18] of the same compound?
**A.** 92.4%

**Q.** What about the viability, T/C [19] of the same compound?
**A.** 85.4%

**Q.** And the viability, T/C [20]?
**A.** 92.7%

**Q.** And the viability, T/C [21]?
**A.** 86.6%

**Q.** And the viability, T/C [22]?
**A.** 88%

**Q.** And the viability, T/C [23]?
**A.** 110%

**Q.** And the viability, T/C [24]?
**A.** 82%

**Q.** What about the viability, T/C [25] of the same compound?
**A.** 65.9%

**Q.** What about the viability, T/C [26] of the same compound?
**A.** 70.8%

**Q.** And the viability, T/C [27]?
**A.** 73.5%

**Q.** What about the viability, T/C [28] of the same compound?
**A.** 83.3%

**Q.** What about the viability, T/C [29] of the same compound?
**A.** 76.9%

**Q.** What about the viability, T/C [30] of the same compound?
**A.** 70.8%

**Q.** What about the viability, T/C [31] of the same compound?
**A.** 39.5%

**Q.** And the viability, T/C [32]?
**A.** 39.9%

**Q.** What about the viability, T/C [33] of the same compound?
**A.** 41.7%

**Q.** What about the viability, T/C [34] of the same compound?
**A.** 42.9%

**Q.** What about the viability, T/C [35] of the same compound?
**A.** 46.4%

**Q.** And the viability, T/C [36]?
**A.** 48.7%

**Q.** `CCCS(=O)(=O)Nc1ccc(F)c(C(=O)c2c[nH]c3ncc(-c4ccc(Cl)cc4)cc23)c1F` + CC(Nc1ncnc2nc[nH]c12)c1cc2cccc(Cl)c2c(=O)n1-c1ccccc1 was tested. Which IC50 (second compound 0.0316 µM) did it give?
**A.** > 10 µM

**Q.** What about the IC50 (second compound 0.1 µM) of the same compound?
**A.** > 10 µM

**Q.** What about the IC50 (second compound 0.316 µM) of the same compound?
**A.** 8.46 µM

**Q.** What about the IC50 (second compound 1 µM) of the same compound?
**A.** > 10 µM

**Q.** And the IC50 (second compound 3.16 µM)?
**A.** 9.93 µM

**Q.** What about the IC50 (second compound 10 µM) of the same compound?
**A.** 9.51 µM

**Q.** What about the viability, T/C [1] of the same compound?
**A.** 114%

**Q.** What about the viability, T/C [2] of the same compound?
**A.** 98.7%

**Q.** And the viability, T/C [3]?
**A.** 84.7%

**Q.** And the viability, T/C [4]?
**A.** 98.4%

**Q.** And the viability, T/C [5]?
**A.** 88.6%

**Q.** What about the viability, T/C [6] of the same compound?
**A.** 53%

**Q.** And the viability, T/C [7]?
**A.** 84.5%

**Q.** And the viability, T/C [8]?
**A.** 96.1%

**Q.** What about the viability, T/C [9] of the same compound?
**A.** 105%

**Q.** And the viability, T/C [10]?
**A.** 84.8%

**Q.** And the viability, T/C [11]?
**A.** 104%

**Q.** And the viability, T/C [12]?
**A.** 52.1%

**Q.** What about the viability, T/C [13] of the same compound?
**A.** 107%

**Q.** What about the viability, T/C [14] of the same compound?
**A.** 87.7%

**Q.** What about the viability, T/C [15] of the same compound?
**A.** 109%

**Q.** And the viability, T/C [16]?
**A.** 83.8%

**Q.** What about the viability, T/C [17] of the same compound?
**A.** 92%

**Q.** What about the viability, T/C [18] of the same compound?
**A.** 42.9%

**Q.** What about the viability, T/C [19] of the same compound?
**A.** 97.2%

**Q.** And the viability, T/C [20]?
**A.** 106%

**Q.** And the viability, T/C [21]?
**A.** 89.2%

**Q.** And the viability, T/C [22]?
**A.** 112%

**Q.** And the viability, T/C [23]?
**A.** 85.6%

**Q.** What about the viability, T/C [24] of the same compound?
**A.** 50.3%

**Q.** And the viability, T/C [25]?
**A.** 85.5%

**Q.** And the viability, T/C [26]?
**A.** 104%

**Q.** And the viability, T/C [27]?
**A.** 73.6%

**Q.** And the viability, T/C [28]?
**A.** 84.8%

**Q.** And the viability, T/C [29]?
**A.** 85.3%

**Q.** And the viability, T/C [30]?
**A.** 49.8%

**Q.** And the viability, T/C [31]?
**A.** 84.7%

**Q.** And the viability, T/C [32]?
**A.** 82.8%

**Q.** And the viability, T/C [33]?
**A.** 92.2%

**Q.** And the viability, T/C [34]?
**A.** 72.7%

**Q.** And the viability, T/C [35]?
**A.** 74.7%

**Q.** What about the viability, T/C [36] of the same compound?
**A.** 48.2%
